In this assay the target is human PAD4 (hPAD4) (Homo sapiens (Human), UniProt Q9UM07). The experiment in a line: RFMS Human PAD4 Functional Assay. It is filed as biochemical. Particulars: rapid-fire mass spectrum (RFMS) assay; 5 nM hPAD4 enzyme, 250 μM BAEE, 30 min preincubation at 37° C.

This passage reports IC50 results from patent US12492202B2, “Macrocyclic PAD4 inhibitors useful as immunosuppressant” (BRISTOL-MYERS SQUIBB COMPANY, priority 2020, dated 2025).

pIC50: −log10 of the molar value.

Sequence of human PAD4 (hPAD4) (Q9UM07 whole entry): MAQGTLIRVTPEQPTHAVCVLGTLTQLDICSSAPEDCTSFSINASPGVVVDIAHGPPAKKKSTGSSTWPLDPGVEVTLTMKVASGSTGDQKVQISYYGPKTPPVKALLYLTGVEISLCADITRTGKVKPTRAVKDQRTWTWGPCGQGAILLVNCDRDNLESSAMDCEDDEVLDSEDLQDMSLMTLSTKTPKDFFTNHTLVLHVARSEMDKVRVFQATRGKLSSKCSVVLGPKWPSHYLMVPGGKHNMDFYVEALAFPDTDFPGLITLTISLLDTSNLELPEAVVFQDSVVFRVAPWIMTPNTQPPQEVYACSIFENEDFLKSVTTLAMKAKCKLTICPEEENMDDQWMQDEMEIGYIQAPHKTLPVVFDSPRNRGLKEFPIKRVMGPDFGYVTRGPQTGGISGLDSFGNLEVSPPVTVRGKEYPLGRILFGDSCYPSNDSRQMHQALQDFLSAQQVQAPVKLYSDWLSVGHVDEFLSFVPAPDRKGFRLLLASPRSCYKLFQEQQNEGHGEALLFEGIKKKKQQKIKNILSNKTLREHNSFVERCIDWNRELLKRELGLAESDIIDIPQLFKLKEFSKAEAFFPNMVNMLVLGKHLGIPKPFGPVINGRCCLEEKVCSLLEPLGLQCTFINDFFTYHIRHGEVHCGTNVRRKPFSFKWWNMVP
Experimental: RFMS Human PAD4 Functional Assay: Compounds were solubilized in 100% DMSO to achieve a 10 mM compound concentration. Compound stock solutions were stored at RT. A series of dilutions were prepared in DMSO and mixed 8 times with 20 μL mixing volume. Final top concentration of compound in the assay is 50 μM. Final assay conditions were as follows: • Reaction volume: 26 μl • Assay buffer: 25 mM hepes, pH 7.5, 5 mM NaCl, 1 mM DTT, 0.2 mg/ml BSA, 0.01% CHAPS, 50 μM Calcium, and 5 μM TPEN • Final concentrations: 5 nM hPAD4 enzyme, 250 μM BAEE, and 0.5% DMSO • Total incubation time: 30 mins compound and enzyme preincubation at 37° C., 90 min enzyme/substrate reaction, 30 min reaction with phenyl glyoxal at 37° C. • Stop solution: 40 μl 5% TCA in ACN 0.13 μL of compound solution was added to 13 μL of 10 nM PAD4 in assay buffer. After 30 min 13 μl of 500 μM of BAEE was added in 25 mM hepes, pH 7.5, 5 mM NaCl, 1 mM DTT, 0.2 mg/ml BSA, 0.01% CHAPS, 50 μM Calcium, 5 μM TPEN was added and the reaction incubated for 90 min at 37° C. The enzymatic reaction was quenched by addition of 15 μl of 6.1N TCA, 100% Final Concentration is 20%, 35 μl of 8.5 mM phenyl glyoxal (final concentration 4 mM) is then added and the reaction is incubated for 30 min at 37° C. After 30 minutes the plates are spun down to remove all precipitate. The enzyme reaction was quenched with an equal volume of methanol containing internal standard (modified citrulline). Samples were loaded onto the Rapid Fire RF300 system (Agilent) wherein they were first sipped for 1000 ms and then directly loaded to a C18 separations cartridge using a mixture of acetonitrile containing 0.01% formic acid for 3000 ms desalting. The flow rate of the mobile phase was 1.5 ml/min. Once the samples were eluted from the cartridge, a mobile phase of acetonitrile containing 0.01% formic acid was used to move the samples into the mass spectrometer for 4000 ms at a flow rate of 1.25 ml/min/Sciex API5500 triple quadrupole mass spectrometer (Applied Biosystems) equipped with ESI was used to analyze the peptidyl citrulline and internal standard ions. MRM transition of product and internal standard were monitored at m/z 424.5 to 350.4 and m/z 293 to 247 respectively. The dwell time for each transition was set at 200 ms, and the ESI voltage was used at 5500 with a source temperature of 400° C. Extracted ion peaks for each transition were integrated using the Rapid Fire Integrator software. Peak area of analyte was normalized with internal standard).

For `COc1cc(C(=O)N2C[C@H]3CC[C@@H]2[C@@H]3N)cc2nc3n(c12)Cc1cccc(c1)[C@H](O)[C@H](O)CCCCn1c-3cc2cccnc21` (relative stereo) [Example 47, ((1R,4R,7R)-7-amino-2-azabicyclo[2.2.1]heptan-2-yl)((5S,6R)-5,6-dihydroxy-27-methoxy-1^1H,2^1H-1,2(2,1)-dipyrrolo[2,3-b]pyridina-4(1,3)-benzenacyclodecaphane-25-yl)methanone], the pIC50 was 7.06. In turn, `COc1cc(C(=O)N2C[C@H]3CC[C@@H]2[C@@H]3N)cc2nc3n(c12)Cc1cccc(c1)[C@H](O)[C@H](O)CCCCn1c-3cc2cccnc21` (relative stereo) [Example 48, ((1R,4R,7R)-7-amino-2-azabicyclo[2.2.1]heptan-2-yl)((5S,6R)-5,6-dihydroxy-27-methoxy-1^1H,2^1H-1,2(2,1)-dipyrrolo[2,3-b]pyridina-4(1,3)-benzenacyclodecaphane-25-yl)methanone] had a negative-log IC50 (pIC50) of 7.04. On to `COc1cc(C(=O)N2C[C@H]3CC[C@@H]2[C@@H]3N)cc2nc3n(c12)CC1CC(=O)N(C1)c1ccccc1CCCCn1c-3cc2cccnc21` (single isomer, unassigned) [Example 37], for which the pIC50 is 7.72. This pIC50 is 0.68 log units higher than that of the molecule before. Molecule `COc1cc(C(=O)N2C[C@H]3CC[C@@H]2[C@@H]3N)cc2nc3n(c12)CC1CC(=O)N(C1)c1ccccc1CCCCn1c-3cc2cccnc21` (single isomer, unassigned) [Example 38] showed a pIC50 of 7.11. With `COc1cc(C(=O)N2C[C@H]3CC[C@@H]2[C@@H]3N)cc2nc3n(c12)Cc1cccc(c1)[C@H](O)[C@H](O)CCCCn1c-3cc2cccnc21` (single isomer, unassigned) [Example 45] the figure was 7.51; with `COc1cc(C(=O)N2C[C@H]3CC[C@@H]2[C@@H]3N)cc2nc3n(c12)Cc1cccc(c1)[C@H](O)[C@H](O)CCCCn1c-3cc2cccnc21` (single isomer, unassigned) [Example 46], 7.35. In turn, `COc1cc(C(=O)N2C[C@H](N)C[C@@H](F)C2)cc2nc3n(c12)Cc1cccc(c1)[C@H](O)[C@H](O)CCCCn1c-3cc2cccnc21` (single isomer, unassigned) [Example 49] showed a pIC50 of 6.53.

In turn, `COc1cc(C(=O)N2C[C@H](N)C[C@@H](F)C2)cc2nc3n(c12)Cc1cccc(c1)[C@H](O)[C@H](O)CCCCn1c-3cc2cccnc21` (single isomer, unassigned) [Example 50] had a pIC50 of 6.08.

`COc1cc(C(=O)N2CC3CCC2[C@@H]3N)cc2nc3n(c12)Cc1cccc(c1)/C=C\CCCCn1c-3cc2cccnc21` (stereo in doubt) [Example 41, ((1R,4R,7R)-7-Amino-2-azabicyclo[2.2.1]heptan-2-yl)((Z)-27-methoxy-11H,21H-1,2(2,1)-dipyrrolo[2,3-b]pyridina-4(1,3)-benzenacyclodecaphan-5-en-25-yl)methanone] showed a pIC50 of 7.35. This pIC50 lies 1.27 log units higher than the previous one.

`COc1cc(C(=O)N2CC3CCC2[C@@H]3N)cc2nc3n(c12)Cc1cnn(c1)CCCCCn1c-3cc2ccccc21` (stereo partly drawn) [Example 1, ((7R)-7-Amino-2-azabicyclo[2.2.1]heptan-2-yl)((Z)-2^7-methoxy-1^1H,2^1H,4^1H-2(2,1)-benzo[d]imidazola-1(2,1)-indola-4(4,1)-pyrazolacyclononaphane-2^5-yl)methanone]: the pIC50 was 6.59. On to `COc1cc(C(=O)N2CC3CCC2[C@@H]3N)cc2nc3n(c12)Cc1cnn(c1)CCCCCCn1c-3cc2cccnc21` (stereo partly drawn) [Example 2, ((7R)-7-Amino-2-azabicyclo[2.2.1]heptan-2-yl)((Z)-2^7-methoxy-1^1H,2^1H,4^1H-1,2(2,1)-dipyrrolo[2,3-b]pyridina-4(4,1)-pyrazolacyclodecaphane-2^5-yl)methanone], for which the pIC50 is 5.86. For `COc1cc(C(=O)N2C[C@H](N)C[C@@H](F)C2)cc2nc3n(c12)Cc1cnn(c1)-c1ccccc1OCCCn1c-3cc2ccccc21` [Example 3, ((3R,5R)-3-Amino-5-fluoropiperidin-1-yl)((Z)-2^7-methoxy-1^1H,2^1H,4^1H-6-oxa-2(2,1)-benzo[d]imidazola-1(2,1)-indola-4(4,1)-pyrazola-5(1,2)-benzenacyclononaphane-2^5-yl)methanone], the negative-log IC50 (pIC50) is 7.72.

As to `COc1cc(C(=O)N2CC3CCC2[C@@H]3N)cc2nc3n(c12)Cc1cnn(c1)CCCCCCn1c-3cc2ccccc21` (stereo partly drawn) [Example 4, ((7R)-7-amino-2-azabicyclo[2.2.1]heptan-2-yl)((Z)-2^7-methoxy-1^1H,2^1H,4^1H-2(2,1)-benzo[d]imidazola-1(2,1)-indola-4(4,1)-pyrazolacyclodecaphane-2^5-yl)methanone], the negative logarithm of the IC50 (pIC50) was 7.62. Molecule `COc1cc(C(=O)N2C[C@H](N)C[C@@H](F)C2)cc2nc3n(c12)Cc1cnn(c1)CCCCCCCn1c-3cc2ccccc21` [Example 5, ((3R,5R)-3-amino-5-fluoropiperidin-1-yl)((Z)-2^7-methoxy-1^1H,2^1H,4^1H-2(2,1)-benzo[d]imidazola-1(2,1)-indola-4(4,1)-pyrazolacycloundecaphane-2^5-yl)methanone] gave a pIC50 of 7.43.

`COc1cc(C(=O)N2CC3CCC2[C@@H]3N)cc2nc3n(c12)Cc1cnn(c1)CCCCCCCn1c-3cc2ccccc21` (stereo partly drawn) [Example 6, ((7R)-7-amino-2-azabicyclo[2.2.1]heptan-2-yl)((Z)-2^7-methoxy-1^1H,2^1H,4^1H-2(2,1)-benzo[d]imidazola-1(2,1)-indola-4(4,1)-pyrazolacycloundecaphane-2^5-yl)methanone] gave a pIC50 of 7.51. On to `COc1cc(C(=O)N2C[C@H](N)C[C@@H](F)C2)cc2nc3n(c12)Cc1cnn(c1)CCCCCCn1c-3cc2cccnc21` [Example 8, ((3R,5R)-3-amino-5-fluoropiperidin-1-yl)((Z)-2^7-methoxy-1^1H,2^1H,4^1H-1,2(2,1)-dipyrrolo[2,3-b]pyridina-4(4,1)-pyrazolacyclodecaphane-2^5-yl)methanone], for which the negative logarithm of the IC50 (pIC50) is 6.56. This pIC50 is 0.95 log units lower than that of the molecule before. `COc1cc(C(=O)N2C[C@H](N)C[C@@H](F)C2)cc2nc3n(c12)Cc1cnn(c1)CCCCCCCn1c-3cc2cccnc21` [Example 9, ((3R,5R)-3-amino-5-fluoropiperidin-1-yl)((Z)-2^7-methoxy-1^1H,2^1H,4^1H-1,2(2,1)-dipyrrolo[2,3-b]pyridina-4(4,1)-pyrazolacycloundecaphane-2^5-yl)methanone] gave a negative logarithm of the IC50 (pIC50) of 6.21. This pIC50 lies 0.35 log units lower than the previous one.

`COc1cc(C(=O)N2CC3CCC2[C@@H]3N)cc2nc3n(c12)Cc1cnn(c1)CCCCCCCn1c-3cc2cccnc21` (stereo partly drawn) [Example 10, ((7R)-7-amino-2-azabicyclo[2.2.1]heptan-2-yl)((Z)-2^7-methoxy-1^1H,2^1H,4^1H-1,2(2,1)-dipyrrolo[2,3-b]pyridina-4(4,1)-pyrazolacycloundecaphane-2^5-yl)methanone] showed a pIC50 of 6.86. Molecule `COc1cc(C(=O)N2CCC[C@@H](N)C2)cc2nc3n(c12)Cc1cnn(c1)CCCCCCn1c-3cc2cccnc21` [Example 11, ((R)-3-aminopiperidin-1-yl)((Z)-2^7-methoxy-1^1H,2^1H,4^1H-1,2(2,1)-dipyrrolo[2,3-b]pyridina-4(4,1)-pyrazolacyclodecaphane-2^5-yl)methanone] gave a pIC50 of 4.73. Compared with the last molecule, the pIC50 is 2.13 log units lower.
